The test has as its target IDO1 (Homo sapiens, UniProt P14902). Briefly: IDO1 Cellular Assay in HeLa Cells Stimulated with IFNγ. It counts as cell-based. Conditions: IFNγ 100 ng/mL, 300 uM L-tryptophan, about 48 hours, fluorescence readout, read-out: IDO1 HELA Cell Assay, IC50. The method, then:
Biological Assays IDO1 Cellular Assay in HeLa Cells Stimulated with IFNγ
HeLa cells were cultured in complete HeLa culture medium (90% EMEM, 10% heat-inactivated fetal bovine serum) and expanded to about 1×10^9 cells. The cells were then collected and frozen down at 1×10^7 cells/vial in 1 mL frozen medium (90% complete HeLa culture medium, 10% DMSO).
Compounds to be tested were serially diluted in ten 3-fold steps in DMSO starting from 10 mM DMSO stocks in Echo low volume plate(s). Compound dilutions or DMSO alone were then dispensed from the dilution plate(s) into Greiner black 384-well assay plate(s) (catalog #781086, 50 nL/well) using an Echo 550 acoustic liquid handler (Labcyte).
Frozen HeLa cells were thawed and transferred into HeLa assay medium (99% complete HeLa culture medium, 1% Pen/Strep) with 20 mL medium/vial of cells. The cells were spun down at 250 g in a table top centrifuge for 5 min and suspended in same volume of HeLa assay medium. The cells were then counted and adjusted to a density of 2×10^5 cells/mL in HeLa assay medium. Sterile L-tryptophan were added to the cells with final concentration of 300 uM L-tryptophan. A small aliquot (2 mL/plate) of HeLa cells were set aside and were not treated with IFNγ, to serve as the Max-E control.
HeLa cells with and without IFNγ were dispensed to the respective wells of 384-well assay plates containing the compounds. The plates were incubated for about 48 hours at a 37° C., 5% CO2 incubator. Afterwards, 12 μL of 0.5 M methyl isonipecotate in dimethyl sulfoxide were added into each well and the plates were sealed and incubated at 37° C. without CO2 overnight. The plates were centrifuged for 1 min at 200×g. The resulting fluorescence was measured in a Spectramax plate reader (Molecular Devices) with a 400 nm excitation filter and a 510 nm emission filter.
The fluorescence intensity of each well was corrected for the background observed in wells with non-IFNγ-treated cells and was expressed as a fraction of the intensity observed in wells of IFNγ-treated cells and DMSO only. Potencies were calculated by linear least squares fit to the four parameter logistic IC50 equation.
Compounds disclosed herein generally have IC50 of about 0.1 nM to about 20,000 nM, or more specifically, about 1 nM to about 10,000 nM, or more specifically, about 5 nM to about 5,000 nM, or more specifically, about 10 nM to about 1,000 nM, or still more specifically, about 10 nM to about 500 nM.
Chain of IDO1 (P14902 whole entry): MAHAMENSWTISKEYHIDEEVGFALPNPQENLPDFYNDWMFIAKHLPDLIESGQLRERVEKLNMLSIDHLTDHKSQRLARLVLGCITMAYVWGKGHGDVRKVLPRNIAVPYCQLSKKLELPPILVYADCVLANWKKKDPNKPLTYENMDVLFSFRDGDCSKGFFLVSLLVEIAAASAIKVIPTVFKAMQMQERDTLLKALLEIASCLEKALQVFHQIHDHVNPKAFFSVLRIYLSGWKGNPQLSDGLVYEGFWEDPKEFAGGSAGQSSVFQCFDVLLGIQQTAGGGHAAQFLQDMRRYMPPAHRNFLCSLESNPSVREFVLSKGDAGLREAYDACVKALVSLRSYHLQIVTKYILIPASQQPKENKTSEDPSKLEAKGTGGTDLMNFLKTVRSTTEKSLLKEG
On to `CCc1ccccc1C1CCN(C(=O)Cn2nc(C(=O)N3C[C@@H](C)O[C@@H](C)C3)c3c2CCC3)CC1` [Example 109, 2-{3-[(2R,6S)-2,6-dimethylmorpholine-4-carbonyl]-5,6-dihydrocyclopenta[c]pyrazol-1(4H)-yl}-1-[4-(2-ethylphenyl)piperidin-1-yl]ethan-1-one], for which the IC50 came out at 38.2 nM. As to `Cc1cccc(C2(F)CCN(C(=O)Cn3nc(C(=O)N4CCN(C(=O)CO)CC4)c4c3C[C@H]3C[C@@H]43)CC2)c1C` [Example 11, 1-(4-(2,3-dimethylphenyl)-4-fluoropiperidin-1-yl)-2-((3bR,4aR)-3-(4-(2-hydroxyacetyl)piperazine-1-carbonyl)-3b,4,4a,5-tetrahydro-1H-cyclopropa[3,4]cyclopenta[1,2-c]pyrazol-1-yl)ethanone], the IC50 stood at 5.4 nM.

As for `C[C@@H]1CN(C(=O)c2nn(CC(=O)N3CCC(c4ccc(C(F)(F)F)c(F)c4)CC3)c3c2CCC3)C[C@H](C)O1` [Example 161, 2-{3-[(2R,6S)-2,6-dimethylmorpholine-4-carbonyl]-5,6-dihydrocyclopenta[c]pyrazol-1(4H)-yl}-1-{4-[3-fluoro-4-(trifluoromethyl)phenyl]piperidin-1-yl}ethan-1-one], the 50% inhibitory concentration (IC50) is 165 nM. With `C[C@@H]1CN(C(=O)c2nn(CC(=O)N3CCC(c4ccc(Cl)c(F)c4)CC3)c3c2CCC3)C[C@H](C)O1` [Example 112, 1-[4-(4-chloro-3-fluorophenyl)piperidin-1-yl]-2-{3-[(2R,6S)-2,6-dimethylmorpholine-4-carbonyl]-5,6-dihydrocyclopenta[c]pyrazol-1(4H)-yl}ethan-1-one] the figure was 40.6 nM; with `C[C@@H]1CN(C(=O)c2nn(CC(=O)N3CCC(c4cccc(Cl)c4)CC3)c3c2CCC3)C[C@H](C)O1` [Example 107, 1-[4-(3-chlorophenyl)piperidin-1-yl]-2-{3-[(2R,6S)-2,6-dimethylmorpholine-4-carbonyl]-5,6-dihydrocyclopenta[c]pyrazol-1(4H)-yl}ethan-1-one], 31.5 nM; with `CCc1ccc(C2CCN(C(=O)Cn3nc(C(=O)N4C[C@@H](C)O[C@@H](C)C4)c4c3CCC4)CC2)cc1` [Example 146, 2-{3-[(2R,6S)-2,6-dimethylmorpholine-4-carbonyl]-5,6-dihydrocyclopenta[c]pyrazol-1(4H)-yl}-1-[4-(4-ethylphenyl)piperidin-1-yl]ethan-1-one], 107 nM. In the case of `C[C@@H]1CN(C(=O)c2nn(CC(=O)N3CCC(c4ccc(C5CC5)cc4)CC3)c3c2CCC3)C[C@H](C)O1` [Example 131, 1-[4-(4-cyclopropylphenyl)piperidin-1-yl]-2-{3-[(2R,6S)-2,6-dimethylmorpholine-4-carbonyl]-5,6-dihydrocyclopenta[c]pyrazol-1(4H)-yl}ethan-1-one], the concentration for half-maximal inhibition (IC50) amounted to 77.9 nM.

On to `C[C@@H]1CN(C(=O)c2nn(CC(=O)N3CCC(c4cccc(C5(C)CC5)c4)CC3)c3c2CCC3)C[C@H](C)O1` [Example 125, 2-{3-[(2R,6S)-2,6-dimethylmorpholine-4-carbonyl]-5,6-dihydrocyclopenta[c]pyrazol-1(4H)-yl}-1-{4-[3-(1-methylcyclopropyl)phenyl]piperidin-1-yl}ethan-1-one], for which the half-maximal inhibitory concentration (IC50) turned out to be 57.7 nM. With `C[C@@H]1CN(C(=O)c2nn(CC(=O)N3CCC(c4ccc(Cl)cc4F)CC3)c3c2CCC3)C[C@H](C)O1` [Example 135, 1-[4-(4-chloro-2-fluorophenyl)piperidin-1-yl]-2-{3-[(2R,6S)-2,6-dimethylmorpholine-4-carbonyl]-5,6-dihydrocyclopenta[c]pyrazol-1(4H)-yl}ethan-1-one] the figure was 83.4 nM. Consider `Cc1cccc(F)c1C1CCN(C(=O)Cn2nc(C(=O)N3C[C@@H](C)O[C@@H](C)C3)c3c2CCC3)CC1` [Example 158, 2-{3-[(2R,6S)-2,6-dimethylmorpholine-4-carbonyl]-5,6-dihydrocyclopenta[c]pyrazol-1(4H)-yl}-1-[4-(2-fluoro-6-methylphenyl)piperidin-1-yl]ethan-1-one], for which the IC50 amounted to 153 nM.

For the compound `Cc1c(F)cccc1C1CCCN(C(=O)Cn2nc(C(=O)N3C[C@@H](C)O[C@@H](C)C3)c3c2CCC3)C1` (stereo partly drawn) [Example 77, 2-{3-[(2R,6S)-2,6-dimethylmorpholine-4-carbonyl]-5,6-dihydrocyclopenta[c]pyrazol-1(4H)-yl}-1-[3-(3-fluoro-2-methylphenyl)piperidin-1-yl] ethan-1-one], the IC50 turned out to be 233 nM.

In the case of `C[C@@H]1CN(C(=O)c2nn(CC(=O)N3CCC(c4cccc(F)c4F)CC3)c3c2CCC3)C[C@H](C)O1` [Example 121, 1-[4-(2,3-difluorophenyl)piperidin-1-yl]-2-{3-[(2R,6S)-2,6-dimethylmorpholine-4-carbonyl]-5,6-dihydrocyclopenta[c]pyrazol-1(4H)-yl}ethan-1-one], the IC50 amounted to 53.2 nM. With `C[C@@H]1CN(C(=O)c2nn(CC(=O)N3CCC(c4ccccc4C(F)(F)F)C3)c3c2CCC3)C[C@H](C)O1` (stereo partly drawn) [Example 73, 2-{3-[(2R,6S)-2,6-dimethylmorpholine-4-carbonyl]-5,6-dihydrocyclopenta[c]pyrazol-1(4H)-yl}-1-{3-[2-(trifluoromethyl)phenyl]pyrrolidin-1-yl}ethan-1-one] the figure was 152 nM. With `[2H]c1c([2H])c([2H])c(C2CCN(C(=O)Cn3nc(C(=O)N4C[C@@H](C)O[C@@H](C)C4)c4c3CCC4)CC2)c([2H])c1[2H]` [Example 143, 2-{3-[(2R,6S)-2,6-dimethylmorpholine-4-carbonyl]-5,6-dihydrocyclopenta[c]pyrazol-1(4H)-yl}-1-[4-(~2~H_5_)phenylpiperidin-1-yl]ethan-1-one] the figure was 102 nM; with `C[C@@H]1CN(C(=O)c2nn(CC(=O)N3CCC(c4cccc(CC(F)(F)F)c4)CC3)c3c2CCC3)C[C@H](C)O1` [Example 164, 2-{3-[(2R,6S)-2,6-dimethylmorpholine-4-carbonyl]-5,6-dihydrocyclopenta[c]pyrazol-1(4H)-yl}-1-{4-[3-(2,2,2-trifluoroethyl)phenyl]piperidin-1-yl}ethan-1-one], 206 nM. Turning to `C[C@@H]1CN(C(=O)c2nn(CC(=O)N3CCC(c4ccccc4)CC3)c3c2CCC3)C[C@H](C)O1` [Example 70, 2-{3-[(2R,6S)-2,6-dimethylmorpholine-4-carbonyl]-5,6-dihydrocyclopenta[c]pyrazol-1(4H)-yl}-1-(4-phenylpiperidin-1-yl)ethan-1-one], the 50% inhibitory concentration (IC50) came out at 79.4 nM. The value for `Cc1cccc(C2(F)CCN(C(=O)Cn3nc(C(=O)N4CCC(OCCO)CC4)c4c3C[C@H]3C[C@@H]43)CC2)c1C` [Example 8, 1-(4-(2,3-dimethylphenyl)-4-fluoropiperidin-1-yl)-2-((3bR,4aR)-3-(4-(2-hydroxyethoxy)piperidine-1-carbonyl)-3b,4,4a,5-tetrahydro-1H-cyclopropa[3,4]cyclopenta[1,2-c]pyrazol-1-yl)ethanone] was 1 nM; that for `C[C@@H]1CN(C(=O)c2nn(CC(=O)N3CCC(c4cc(Cl)ccc4F)CC3)c3c2CCC3)C[C@H](C)O1` [Example 166, 1-[4-(5-chloro-2-fluorophenyl)piperidin-1-yl]-2-{3-[(2R,6S)-2,6-dimethylmorpholine-4-carbonyl]-5,6-dihydrocyclopenta[c]pyrazol-1(4H)-yl}ethan-1-one] was 261 nM. The value for `Cc1c(Cl)cc(Cl)cc1C1CCN(C(=O)Cn2nc(C(=O)N3C[C@@H](C)O[C@@H](C)C3)c3c2CCC3)CC1` [Example 122, 1-[4-(3,5-dichloro-2-methylphenyl)piperidin-1-yl]-2-{3-[(2R,6S)-2,6-dimethylmorpholine-4-carbonyl]-5,6-dihydrocyclopenta[c]pyrazol-1(4H)-yl}ethan-1-one] was 54.5 nM. The value for `Cc1cccc(C2(F)CCN(C(=O)Cn3nc(C(=O)N4CCC(O)CC4)c4c3C[C@H]3C[C@@H]43)CC2)c1C` [Example 10, 1-(4-(2,3-dimethylphenyl)-4-fluoropiperidin-1-yl)-2-((3bR,4aR)-3-(4-hydroxypiperidine-1-carbonyl)-3b,4,4a,5-tetrahydro-1H-cyclopropa[3,4]cyclopenta[1,2-c]pyrazol-1-yl)ethanone] was 3.4 nM; that for `C[C@@H]1CN(C(=O)c2nn(CC(=O)N3CCC(c4ccc(C(F)(F)F)cc4F)CC3)c3c2CCC3)C[C@H](C)O1` [Example 147, 2-{3-[(2R,6S)-2,6-dimethylmorpholine-4-carbonyl]-5,6-dihydrocyclopenta[c]pyrazol-1(4H)-yl}-1-{4-[2-fluoro-4-(trifluoromethyl)phenyl]piperidin-1-yl}ethan-1-one] was 109 nM.

One may read the IC50 as the concentration at which inhibition is half-maximal.

These data come from US12091405B2, “Substituted pyrazole compounds as indoleamine 2,3-dioxygenase inhibitors” (Merck Sharp & Dohme LLC, priority 2018, dated 2024).
